According to paper PMC8632988, “Inhibition of SYK and cSrc kinases can protect bone and cartilage in preclinical models of osteoarthritis and rheumatoid arthritis” (Scientific Reports, 2021):
pIC50: −log10 of the molar value.

Legend:
Assay in all cases: Kinase selectivity profile assay
Assay type in all cases: biochemical
[1] = target: T1, LIMK2 (Homo sapiens, UniProt P53671); conditions: 500 nM; relative to DMSO; read-out: Residual enzymatic activity
T1 construct: purchased Reaction Biology Corporation
Method in brief: (§1)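 Radiometric kinase assay run by a standard protocol. Unbound phosphate was removed by washing filters in phosphoric acid, and product radioactivity gave percent remaining kinase activity versus DMSO vehicle reactions. Run in duplicate.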

[2] = target: T2, PKCtheta (Homo sapiens, UniProt Q04759); conditions: 500 nM; relative to DMSO; read-out: Residual enzymatic activity
T2 construct: purchased Reaction Biology Corporation
Method in brief: as §1

[3] = target: T3, NEK5 (Homo sapiens, UniProt Q6P3R8); conditions: 500 nM; relative to DMSO; read-out: Residual enzymatic activity
T3 construct: purchased Reaction Biology Corporation
Method in brief: as §1

[4] = target: T4, PKAcb (Homo sapiens, UniProt P22694); conditions: 500 nM; relative to DMSO; read-out: Residual enzymatic activity
T4 construct: purchased Reaction Biology Corporation
Method in brief: as §1

[5] = target: T5, ALK4/ACVR1B (Homo sapiens, UniProt P36896); conditions: 500 nM; relative to DMSO; read-out: Residual enzymatic activity
T5 construct: purchased Reaction Biology Corporation
Method in brief: as §1

[6] = target: T6, TYRO3/SKY (Homo sapiens, UniProt Q06418); conditions: 500 nM; relative to DMSO; read-out: Residual enzymatic activity
T6 construct: purchased Reaction Biology Corporation
Method in brief: as §1

[7] = target: T7, PBK/TOPK (Homo sapiens, UniProt Q96KB5); conditions: 500 nM; relative to DMSO; read-out: Residual enzymatic activity
T7 construct: purchased Reaction Biology Corporation
Method in brief: as §1

[8] = target: T8, TAK1 (Homo sapiens, UniProt O43318); conditions: 500 nM; relative to DMSO; read-out: Residual enzymatic activity
T8 construct: purchased Reaction Biology Corporation
Method in brief: as §1

[9] = target: T9, CK1a1 (Homo sapiens, UniProt P48729); conditions: 500 nM; relative to DMSO; read-out: Residual enzymatic activity
T9 construct: purchased Reaction Biology Corporation
Method in brief: as §1

[10] = target: T10, PKN2/PRK2 (Homo sapiens, UniProt Q16513); conditions: 500 nM; relative to DMSO; read-out: Residual enzymatic activity
T10 construct: purchased Reaction Biology Corporation
Method in brief: as §1

[11] = target: T11, SGK2 (Homo sapiens, UniProt Q9HBY8); conditions: 500 nM; relative to DMSO; read-out: Residual enzymatic activity
T11 construct: purchased Reaction Biology Corporation
Method in brief: as §1

[12] = target: T12, NEK6 (Homo sapiens, UniProt Q9HC98); conditions: 500 nM; relative to DMSO; read-out: Residual enzymatic activity
T12 construct: purchased Reaction Biology Corporation
Method in brief: as §1

[13] = target: T13, WNK2 (Homo sapiens, UniProt Q9Y3S1); conditions: 500 nM; relative to DMSO; read-out: Residual enzymatic activity
T13 construct: purchased Reaction Biology Corporation
Method in brief: as §1

[14] = target: T14, CDC7/DBF4 (Homo sapiens, UniProt O00311); conditions: 500 nM; relative to DMSO; read-out: Residual enzymatic activity
T14 construct: purchased Reaction Biology Corporation
Method in brief: as §1

[15] = target: T15, PLK2 (Homo sapiens, UniProt Q9NYY3); conditions: 500 nM; relative to DMSO; read-out: Residual enzymatic activity
T15 construct: purchased Reaction Biology Corporation
Method in brief: as §1

[16] = target: T16, EPHA8 (Homo sapiens, UniProt P29322); conditions: 500 nM; relative to DMSO
T16 construct: purchased Reaction Biology Corporation
Method in brief: as §1

[17] = target: T17, BRAF (Homo sapiens, UniProt P15056); conditions: 500 nM; relative to DMSO; read-out: Residual enzymatic activity
T17 construct: purchased Reaction Biology Corporation
Method in brief: as §1

[18] = target: T18, FGR (Homo sapiens, UniProt P09769)
T18 construct: purchased Reaction Biology Corporation (assay service)
T18 sequence (P09769 whole entry): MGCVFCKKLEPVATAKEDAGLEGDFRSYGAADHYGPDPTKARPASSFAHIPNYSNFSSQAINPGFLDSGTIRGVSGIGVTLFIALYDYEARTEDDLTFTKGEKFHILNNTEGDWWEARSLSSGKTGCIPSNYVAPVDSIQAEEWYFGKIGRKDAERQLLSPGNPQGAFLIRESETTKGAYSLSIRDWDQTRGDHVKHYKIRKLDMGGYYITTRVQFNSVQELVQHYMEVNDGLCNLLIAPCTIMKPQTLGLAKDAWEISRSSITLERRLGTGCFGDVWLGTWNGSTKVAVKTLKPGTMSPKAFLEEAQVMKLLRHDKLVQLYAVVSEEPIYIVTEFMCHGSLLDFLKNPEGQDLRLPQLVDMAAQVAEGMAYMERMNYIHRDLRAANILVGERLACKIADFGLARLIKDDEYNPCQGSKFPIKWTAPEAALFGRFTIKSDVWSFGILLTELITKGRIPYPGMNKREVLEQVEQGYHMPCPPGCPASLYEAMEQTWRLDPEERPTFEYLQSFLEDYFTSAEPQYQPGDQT
Method in brief: as §1

[19] = target: T19, ACK1 (Homo sapiens, UniProt Q07912)
T19 construct: purchased Reaction Biology Corporation (assay service)
T19 sequence (Q07912 whole entry): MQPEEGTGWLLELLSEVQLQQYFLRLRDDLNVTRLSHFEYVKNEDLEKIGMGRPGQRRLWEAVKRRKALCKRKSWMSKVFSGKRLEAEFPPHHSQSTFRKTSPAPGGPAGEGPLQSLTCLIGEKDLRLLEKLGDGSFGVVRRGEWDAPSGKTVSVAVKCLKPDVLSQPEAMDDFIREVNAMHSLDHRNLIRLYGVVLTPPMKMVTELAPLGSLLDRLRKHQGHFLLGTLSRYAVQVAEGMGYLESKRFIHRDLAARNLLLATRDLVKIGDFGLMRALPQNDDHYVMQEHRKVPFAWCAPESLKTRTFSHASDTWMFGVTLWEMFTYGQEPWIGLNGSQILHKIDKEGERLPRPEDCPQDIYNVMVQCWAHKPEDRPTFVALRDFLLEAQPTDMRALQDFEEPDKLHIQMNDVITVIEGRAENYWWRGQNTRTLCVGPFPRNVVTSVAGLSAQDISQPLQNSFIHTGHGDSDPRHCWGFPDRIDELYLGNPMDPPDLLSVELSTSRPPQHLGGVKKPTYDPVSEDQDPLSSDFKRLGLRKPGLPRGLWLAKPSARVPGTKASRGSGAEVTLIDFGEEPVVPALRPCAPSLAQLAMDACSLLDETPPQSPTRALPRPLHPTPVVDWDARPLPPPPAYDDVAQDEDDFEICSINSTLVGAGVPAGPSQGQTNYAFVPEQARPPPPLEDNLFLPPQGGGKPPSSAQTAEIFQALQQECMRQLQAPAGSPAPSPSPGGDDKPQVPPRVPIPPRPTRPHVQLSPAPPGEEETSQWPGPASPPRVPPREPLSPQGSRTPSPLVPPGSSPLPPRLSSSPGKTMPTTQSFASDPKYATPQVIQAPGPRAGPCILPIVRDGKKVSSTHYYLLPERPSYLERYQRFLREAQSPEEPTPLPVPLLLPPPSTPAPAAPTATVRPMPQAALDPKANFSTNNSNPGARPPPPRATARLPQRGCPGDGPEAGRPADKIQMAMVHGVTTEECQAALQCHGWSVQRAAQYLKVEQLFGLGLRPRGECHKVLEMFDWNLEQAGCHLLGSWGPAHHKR
Method in brief: as §1

[20] = target: T20, MLK1/MAP3K9 (Homo sapiens, UniProt P80192)
T20 construct: purchased Reaction Biology Corporation (assay service)
T20 sequence (P80192 whole entry): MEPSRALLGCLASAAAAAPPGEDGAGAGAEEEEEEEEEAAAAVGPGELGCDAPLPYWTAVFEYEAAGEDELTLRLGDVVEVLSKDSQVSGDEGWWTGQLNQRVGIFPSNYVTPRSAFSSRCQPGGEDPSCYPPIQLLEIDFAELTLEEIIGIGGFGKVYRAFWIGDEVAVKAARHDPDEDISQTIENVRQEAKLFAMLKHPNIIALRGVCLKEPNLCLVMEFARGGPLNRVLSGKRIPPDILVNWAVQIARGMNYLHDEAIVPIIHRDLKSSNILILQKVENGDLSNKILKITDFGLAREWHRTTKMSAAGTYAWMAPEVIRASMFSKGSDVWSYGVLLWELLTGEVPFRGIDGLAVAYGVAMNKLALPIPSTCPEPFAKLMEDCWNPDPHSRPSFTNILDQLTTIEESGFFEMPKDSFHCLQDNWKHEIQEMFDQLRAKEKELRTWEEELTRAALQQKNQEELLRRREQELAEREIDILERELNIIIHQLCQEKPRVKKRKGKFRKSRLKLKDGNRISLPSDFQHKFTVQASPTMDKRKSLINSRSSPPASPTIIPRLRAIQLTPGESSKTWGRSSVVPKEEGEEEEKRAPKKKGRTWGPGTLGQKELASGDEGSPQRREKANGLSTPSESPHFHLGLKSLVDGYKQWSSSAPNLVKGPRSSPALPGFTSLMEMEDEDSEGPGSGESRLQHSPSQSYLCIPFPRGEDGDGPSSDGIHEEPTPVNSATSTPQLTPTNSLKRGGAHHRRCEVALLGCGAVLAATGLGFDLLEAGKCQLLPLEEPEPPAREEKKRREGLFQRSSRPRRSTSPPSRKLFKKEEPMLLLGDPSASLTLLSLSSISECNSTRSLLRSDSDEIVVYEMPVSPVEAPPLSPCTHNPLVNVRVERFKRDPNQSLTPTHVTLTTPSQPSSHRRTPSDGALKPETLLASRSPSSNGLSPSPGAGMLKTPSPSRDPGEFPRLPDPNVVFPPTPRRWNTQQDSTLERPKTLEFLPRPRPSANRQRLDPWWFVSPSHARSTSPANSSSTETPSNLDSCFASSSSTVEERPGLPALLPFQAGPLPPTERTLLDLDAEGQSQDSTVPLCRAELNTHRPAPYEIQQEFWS
Method in brief: as §1

[21] = target: T21, MYO3b (Homo sapiens, UniProt Q8WXR4); conditions: 500 nM; relative to DMSO; read-out: Residual enzymatic activity
T21 construct: purchased Reaction Biology Corporation
Method in brief: as §1

[22] = target: T22, DDR2 (Homo sapiens, UniProt Q16832); conditions: 500 nM; relative to DMSO; read-out: Residual enzymatic activity
T22 construct: purchased Reaction Biology Corporation
T22 sequence (Q16832 22-855): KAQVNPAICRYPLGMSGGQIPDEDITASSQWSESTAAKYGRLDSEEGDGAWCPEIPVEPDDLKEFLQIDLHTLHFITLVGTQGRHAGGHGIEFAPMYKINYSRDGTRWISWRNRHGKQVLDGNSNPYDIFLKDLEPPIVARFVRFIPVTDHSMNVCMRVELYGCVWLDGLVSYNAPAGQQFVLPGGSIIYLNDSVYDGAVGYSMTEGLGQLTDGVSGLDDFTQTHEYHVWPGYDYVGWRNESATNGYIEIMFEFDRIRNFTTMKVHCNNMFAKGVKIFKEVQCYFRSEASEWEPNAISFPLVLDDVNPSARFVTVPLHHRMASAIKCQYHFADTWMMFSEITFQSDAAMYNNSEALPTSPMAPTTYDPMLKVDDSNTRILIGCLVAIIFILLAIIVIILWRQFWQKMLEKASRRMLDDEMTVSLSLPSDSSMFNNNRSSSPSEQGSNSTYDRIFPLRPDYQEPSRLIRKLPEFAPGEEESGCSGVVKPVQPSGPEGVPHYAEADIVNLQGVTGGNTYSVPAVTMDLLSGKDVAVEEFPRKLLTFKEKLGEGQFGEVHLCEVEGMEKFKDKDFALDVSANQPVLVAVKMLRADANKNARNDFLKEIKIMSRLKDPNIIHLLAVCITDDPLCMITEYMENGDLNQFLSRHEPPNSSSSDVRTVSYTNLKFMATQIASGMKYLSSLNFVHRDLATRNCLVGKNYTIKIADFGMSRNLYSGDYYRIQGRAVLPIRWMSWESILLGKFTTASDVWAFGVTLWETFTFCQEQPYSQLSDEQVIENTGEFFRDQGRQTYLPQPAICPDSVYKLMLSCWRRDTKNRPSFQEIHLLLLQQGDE
Method in brief: as §1

[23] = target: T23, MUSK (Homo sapiens, UniProt O15146); conditions: 500 nM; relative to DMSO; read-out: Residual enzymatic activity
T23 construct: purchased Reaction Biology Corporation
Method in brief: as §1

[24] = target: T24, MAPKAPK5/PRAK (Homo sapiens, UniProt Q8IW41); conditions: 500 nM; relative to DMSO; read-out: Residual enzymatic activity
T24 construct: purchased Reaction Biology Corporation
Method in brief: as §1

[25] = target: T25, PKG1b (Homo sapiens, UniProt Q13976); conditions: 500 nM; relative to DMSO; read-out: Residual enzymatic activity
T25 construct: purchased Reaction Biology Corporation
Method in brief: as §1

[26] = target: T26, STK32C/YANK3 (Homo sapiens, UniProt Q86UX6); conditions: 500 nM; relative to DMSO; read-out: Residual enzymatic activity
T26 construct: purchased Reaction Biology Corporation
Method in brief: as §1

[27] = target: T27, PKCb1 (Homo sapiens, UniProt P05771); conditions: 500 nM; relative to DMSO; read-out: Residual enzymatic activity
T27 construct: purchased Reaction Biology Corporation
Method in brief: as §1

[28] = target: T28, ERK7/MAPK15 (Homo sapiens, UniProt Q8TD08); conditions: 500 nM; relative to DMSO; read-out: Residual enzymatic activity
T28 construct: purchased Reaction Biology Corporation
Method in brief: as §1

[29] = target: T29, GLK/MAP4K3 (Homo sapiens, UniProt Q8IVH8); conditions: 500 nM; relative to DMSO; read-out: Residual enzymatic activity
T29 construct: purchased Reaction Biology Corporation
Method in brief: as §1

[30] = target: T30, CAMK2a (Homo sapiens, UniProt Q9UQM7); conditions: 500 nM; relative to DMSO; read-out: Residual enzymatic activity
T30 construct: purchased Reaction Biology Corporation
Method in brief: as §1

[31] = target: T31, PKCd (Homo sapiens, UniProt Q05655); conditions: 500 nM; relative to DMSO; read-out: Residual enzymatic activity
T31 construct: purchased Reaction Biology Corporation
Method in brief: as §1

[32] = target: T32, IRAK1 (Homo sapiens, UniProt P51617); conditions: 500 nM; relative to DMSO; read-out: Residual enzymatic activity
T32 construct: purchased Reaction Biology Corporation
T32 sequence (P51617 whole entry): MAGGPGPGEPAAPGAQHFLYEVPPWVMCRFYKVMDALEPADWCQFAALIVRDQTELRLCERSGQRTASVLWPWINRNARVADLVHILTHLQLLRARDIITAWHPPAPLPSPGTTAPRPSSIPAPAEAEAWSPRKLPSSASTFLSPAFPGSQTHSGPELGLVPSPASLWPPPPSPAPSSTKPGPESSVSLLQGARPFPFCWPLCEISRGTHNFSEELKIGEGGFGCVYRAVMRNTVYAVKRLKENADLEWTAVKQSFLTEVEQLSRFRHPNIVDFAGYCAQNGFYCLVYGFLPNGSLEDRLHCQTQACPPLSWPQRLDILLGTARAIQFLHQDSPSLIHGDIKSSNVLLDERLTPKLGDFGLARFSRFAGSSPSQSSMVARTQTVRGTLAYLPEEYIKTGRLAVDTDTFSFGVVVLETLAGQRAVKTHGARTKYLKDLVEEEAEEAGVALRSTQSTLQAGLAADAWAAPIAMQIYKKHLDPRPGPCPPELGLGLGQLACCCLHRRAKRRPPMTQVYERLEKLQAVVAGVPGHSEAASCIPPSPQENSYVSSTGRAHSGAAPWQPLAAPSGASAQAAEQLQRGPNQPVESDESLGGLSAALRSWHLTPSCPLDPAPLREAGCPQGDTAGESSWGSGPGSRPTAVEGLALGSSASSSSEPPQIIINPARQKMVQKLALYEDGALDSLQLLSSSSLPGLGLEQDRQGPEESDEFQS
Method in brief: as §1

[33] = target: T33, WEE1 (Homo sapiens, UniProt P30291); conditions: 500 nM; relative to DMSO; read-out: Residual enzymatic activity
T33 construct: purchased Reaction Biology Corporation
Method in brief: as §1

[34] = target: T34, SIK3 (Homo sapiens, UniProt Q9Y2K2); conditions: 500 nM; relative to DMSO; read-out: Residual enzymatic activity
T34 construct: purchased Reaction Biology Corporation
Method in brief: as §1

[35] = target: T35, CK1d (Homo sapiens, UniProt P48730); conditions: 500 nM; relative to DMSO; read-out: Residual enzymatic activity
T35 construct: purchased Reaction Biology Corporation
Method in brief: as §1

[36] = target: T36, CK1g2 (Homo sapiens, UniProt P78368); conditions: 500 nM; relative to DMSO; read-out: Residual enzymatic activity
T36 construct: purchased Reaction Biology Corporation
Method in brief: as §1

[37] = target: T37, NEK9 (Homo sapiens, UniProt Q8TD19); conditions: 500 nM; relative to DMSO; read-out: Residual enzymatic activity
T37 construct: purchased Reaction Biology Corporation
Method in brief: as §1

[38] = target: T38, MSK2/RPS6KA4 (Homo sapiens, UniProt O75676); conditions: 500 nM; relative to DMSO; read-out: Residual enzymatic activity
T38 construct: purchased Reaction Biology Corporation
Method in brief: as §1

[39] = target: T39, ERBB2/HER2 (Homo sapiens, UniProt P04626); conditions: 500 nM; relative to DMSO; read-out: Residual enzymatic activity
T39 construct: purchased Reaction Biology Corporation
Method in brief: as §1

[40] = target: T40, TYK1/LTK (Homo sapiens, UniProt P29376); conditions: 500 nM; relative to DMSO; read-out: Residual enzymatic activity
T40 construct: purchased Reaction Biology Corporation
T40 sequence (P29376 17-864): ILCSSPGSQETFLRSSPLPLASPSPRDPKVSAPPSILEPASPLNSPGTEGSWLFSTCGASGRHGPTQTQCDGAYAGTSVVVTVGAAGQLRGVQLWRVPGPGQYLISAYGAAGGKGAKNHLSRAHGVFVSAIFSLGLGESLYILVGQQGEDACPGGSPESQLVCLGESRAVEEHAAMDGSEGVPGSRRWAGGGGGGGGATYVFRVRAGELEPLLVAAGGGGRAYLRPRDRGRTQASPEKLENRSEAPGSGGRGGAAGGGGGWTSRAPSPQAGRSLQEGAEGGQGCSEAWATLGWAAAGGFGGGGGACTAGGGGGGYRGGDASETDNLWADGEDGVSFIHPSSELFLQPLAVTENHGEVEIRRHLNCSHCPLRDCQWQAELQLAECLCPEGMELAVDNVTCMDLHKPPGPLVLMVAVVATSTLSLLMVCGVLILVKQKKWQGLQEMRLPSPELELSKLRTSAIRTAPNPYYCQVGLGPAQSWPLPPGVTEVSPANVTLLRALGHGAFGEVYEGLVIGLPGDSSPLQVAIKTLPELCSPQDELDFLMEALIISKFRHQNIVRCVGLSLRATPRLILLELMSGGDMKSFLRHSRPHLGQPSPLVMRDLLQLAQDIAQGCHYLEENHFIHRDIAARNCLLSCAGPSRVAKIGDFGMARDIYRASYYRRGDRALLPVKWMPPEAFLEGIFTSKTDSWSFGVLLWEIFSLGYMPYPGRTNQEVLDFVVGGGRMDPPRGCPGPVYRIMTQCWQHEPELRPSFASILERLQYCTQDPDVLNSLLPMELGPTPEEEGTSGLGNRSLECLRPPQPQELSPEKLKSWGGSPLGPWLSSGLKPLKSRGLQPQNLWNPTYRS
Method in brief: as §1

[41] = 500 nM, relative to DMSO, read-out: Residual enzymatic activity
[42] = 10-dose mode, threefold serial dilution from 10 μM

COc1cc(Nc2ncnc(Nc3cc4c(cn3)NC(=O)C(C)(C)O4)n2)cc(OC)c1OC [MT-SYK-03]
remaining activity at 0.5 µM [1]: 84.9%
remaining activity at 0.5 µM [2]: 102%
remaining activity at 0.5 µM [3]: 63.6%
remaining activity at 0.5 µM [4]: 98.4%
remaining activity at 0.5 µM [5]: 125%
remaining activity at 0.5 µM [6]: 104%
remaining activity at 0.5 µM [7]: 102%
remaining activity at 0.5 µM [8]: 103%
remaining activity at 0.5 µM [9]: 101%
remaining activity at 0.5 µM [10]: 95.6%
remaining activity at 0.5 µM [11]: 110%
remaining activity at 0.5 µM [12]: 103%
remaining activity at 0.5 µM [13]: 84.6%
remaining activity at 0.5 µM [14]: 102%
remaining activity at 0.5 µM [15]: 81.6%
Residual enzymatic activity [16]: 99.7%
remaining activity at 0.5 µM [17]: 86.7%
remaining activity at 0.5 µM [18, 41]: 22.6%
pIC50 [18, 42]: 8.05
remaining activity at 0.5 µM [19, 41]: 5.4%
pIC50 [19, 42]: 7.07
remaining activity at 0.5 µM [20, 41]: 21.5%
pIC50 [20, 42]: 8.11
remaining activity at 0.5 µM [21]: 95.4%
remaining activity at 0.5 µM [22]: 69%
remaining activity at 0.5 µM [23]: 79.9%
remaining activity at 0.5 µM [24]: 92.3%
remaining activity at 0.5 µM [25]: 93.9%
remaining activity at 0.5 µM [26]: 115%
remaining activity at 0.5 µM [27]: 104%
remaining activity at 0.5 µM [28]: 100%
remaining activity at 0.5 µM [29]: 94.1%
remaining activity at 0.5 µM [30]: 94.1%
remaining activity at 0.5 µM [31]: 110%
remaining activity at 0.5 µM [32]: 74.6%
remaining activity at 0.5 µM [33]: 108%
remaining activity at 0.5 µM [34]: 83.4%
remaining activity at 0.5 µM [35]: 86.5%
remaining activity at 0.5 µM [36]: 97.2%
remaining activity at 0.5 µM [37]: 55.7%
remaining activity at 0.5 µM [38]: 97.9%
remaining activity at 0.5 µM [39]: 82.2%
remaining activity at 0.5 µM [40]: 92%
